The values that follow are results of earlier work, collected in patent EP1862927B1, “Descriptors of three-dimensional objects, uses thereof and a method to generate the same” (SILICOS NV, priority 2006, dated 2007).

SMILES strings stand for the structures.

This data set deals with T1, human soluble epoxide hydrolase (Homo sapiens, UniProt P34913).
T1 sequence (P34913 1-555): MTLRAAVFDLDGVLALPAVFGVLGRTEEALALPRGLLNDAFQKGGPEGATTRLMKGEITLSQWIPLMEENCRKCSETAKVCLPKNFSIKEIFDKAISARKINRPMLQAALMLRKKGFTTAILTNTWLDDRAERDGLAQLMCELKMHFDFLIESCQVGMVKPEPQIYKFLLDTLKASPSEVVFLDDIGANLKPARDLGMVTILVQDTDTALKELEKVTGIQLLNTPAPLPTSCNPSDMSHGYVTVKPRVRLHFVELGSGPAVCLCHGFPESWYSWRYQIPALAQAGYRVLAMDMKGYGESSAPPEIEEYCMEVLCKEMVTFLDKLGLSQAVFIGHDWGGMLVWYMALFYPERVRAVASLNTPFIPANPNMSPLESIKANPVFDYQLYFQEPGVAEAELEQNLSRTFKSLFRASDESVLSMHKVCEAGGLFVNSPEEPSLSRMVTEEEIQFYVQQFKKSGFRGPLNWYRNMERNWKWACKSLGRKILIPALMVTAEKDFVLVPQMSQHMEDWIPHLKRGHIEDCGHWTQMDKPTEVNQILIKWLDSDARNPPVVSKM
The note with it: inhibition constants of urea-like molecular species taken from McElroy et al., J. Med. Chem. 46, 1066-1080.

As for `O=C(NCC1CCCCC1)NC1C2CC3CC(C2)CC1C3` (stereo not shown) [molecular species 136], the 50% inhibitory concentration (IC50) was 0.1 µM.

In general, IC50 refers to the concentration that inhibits the measured activity by half.
